Results published in patent US20230270867A1, “CONJUGATE IN WHICH FL118 DRUG IS LINKED TO ACID-SENSITIVE LINKER, AND IMMUNOCONJUGATE USING SAME” (PINOTBIO, INC., priority 2020, published 2023).

What was measured:
[1] = system: various cancer cell lines; assay: Cytotoxicity of FL118 in various cancer cell lines; type: cell-based; conditions: 140 cell lines originating from various cancers; against most cancer cells
MDA-MB-468 cells = assay: In vivo drug efficacy, MDA-MB-468 xenograft model (sacituzumab / Example 9); design: species or system mice; conditions: MDA-MB-468 model, Group 2, dose not given

## CCC1(O)C(=O)OCc2c1cc1n(c2=O)Cc2cc3cc4c(cc3nc2-1)OCO4 (stereo in doubt) [FL118, (4S)-4-ethyl-4-hydroxy-8,9-methylenedioxy-1H-pyrano[3′,4′:6,7]indolizino[1,2-b]quinoline-3,14(4H,12H)-dione]
[1]
  IC50: < 100 nM

## sacituzumab: Trop-2 target antibody; control
MDA-MB-468 cells; Day 0
  Tumor volume: 200.20 ± 30.90 mm^3
MDA-MB-468 cells; Day 21
  TGI: 43.6%
  Tumor volume: 433.08±126.82 mm^3
